From PubChem BioAssay (NCI)
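Interpolation was linear, between the two tested concentrations surrounding the appropriate level; five concentrations were tested over 48 hours in 96-well plates. Here, GI50 denotes the concentration required for 50% inhibition of growth. TGI: total growth inhibition.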

Experiments:
Assay in all cases: growth of human tumour cells (NCI), 48 h
TK-10 renal = test system: TK-10 renal
SK-MEL-5 melanoma = test system: SK-MEL-5 melanoma
MDA-N = test system: MDA-N
SK-OV-3 ovarian = test system: SK-OV-3 ovarian
786-0 renal = test system: 786-0 renal
CCRF-CEM leukemia = test system: CCRF-CEM leukemia
DU-145 prostate = test system: DU-145 prostate
HOP-62 NSCLC = test system: HOP-62 NSCLC
T-47D breast = test system: T-47D breast
IGROV1 ovarian = test system: IGROV1 ovarian
HCT-15 colon = test system: HCT-15 colon
MOLT-4 leukemia = test system: MOLT-4 leukemia
M14 melanoma = test system: M14 melanoma
CAKI-1 renal = test system: CAKI-1 renal
UACC-62 melanoma = test system: UACC-62 melanoma
KM12 colon = test system: KM12 colon
RPMI-8226 leukemia = test system: RPMI-8226 leukemia
COLO 205 colon = test system: COLO 205 colon
MALME-3M melanoma = test system: MALME-3M melanoma
SW-620 colon = test system: SW-620 colon
PC-3 prostate = test system: PC-3 prostate
OVCAR-8 ovarian = test system: OVCAR-8 ovarian
SF-295 CNS = test system: SF-295 CNS
HL-60(TB) leukemia = test system: HL-60(TB) leukemia
EKVX NSCLC = test system: EKVX NSCLC
SK-MEL-28 melanoma = test system: SK-MEL-28 melanoma
LOX IMVI melanoma = test system: LOX IMVI melanoma
RXF 393 renal = test system: RXF 393 renal
MDA-MB-231 breast = test system: MDA-MB-231 breast
SN12C renal = test system: SN12C renal
NCI-H23 lung = test system: NCI-H23 lung
HCC-2998 colon = test system: HCC-2998 colon
MCF7 breast = test system: MCF7 breast
K-562 leukemia = test system: K-562 leukemia
SR leukemia = test system: SR leukemia
A549 NSCLC = test system: A549 NSCLC
HT29 colon = test system: HT29 colon
SNB-75 CNS = test system: SNB-75 CNS
UACC-257 melanoma = test system: UACC-257 melanoma
UO-31 renal = test system: UO-31 renal
NCI-H226 lung = test system: NCI-H226 lung
A498 renal = test system: A498 renal
OVCAR-3 ovarian = test system: OVCAR-3 ovarian
OVCAR-5 ovarian = test system: OVCAR-5 ovarian
NCI-H460 lung = test system: NCI-H460 lung
HCT-116 colon = test system: HCT-116 colon
SNB-19 CNS = test system: SNB-19 CNS
SF-539 CNS = test system: SF-539 CNS
U251 CNS = test system: U251 CNS
HS 578T breast = test system: HS 578T breast
ACHN renal = test system: ACHN renal
SF-268 CNS = test system: SF-268 CNS
SK-MEL-2 melanoma = test system: SK-MEL-2 melanoma
NCI/ADR-RES ovarian = test system: NCI/ADR-RES ovarian
MDA-MB-435 = test system: MDA-MB-435
OVCAR-4 ovarian = test system: OVCAR-4 ovarian
NCI-H522 lung = test system: NCI-H522 lung

CC(C)(Oc1ccc(C(=O)c2ccc(Cl)cc2)cc1Cl)C(=O)N1CCN(CCO)CC1
TGI (TK-10 renal): > 10 µM | TGI (SK-MEL-5 melanoma): > 10 µM | TGI (MDA-N): > 10 µM | TGI (SK-OV-3 ovarian): > 10 µM | TGI (786-0 renal): > 10 µM | TGI (CCRF-CEM leukemia): > 10 µM | TGI (DU-145 prostate): > 10 µM | TGI (HOP-62 NSCLC): > 10 µM | TGI (T-47D breast): > 10 µM | TGI (IGROV1 ovarian): > 10 µM | TGI (HCT-15 colon): > 10 µM | TGI (MOLT-4 leukemia): > 10 µM | TGI (M14 melanoma): > 10 µM | TGI (CAKI-1 renal): > 10 µM | TGI (UACC-62 melanoma): > 10 µM | TGI (KM12 colon): > 10 µM | TGI (RPMI-8226 leukemia): > 10 µM | TGI (COLO 205 colon): > 10 µM | TGI (MALME-3M melanoma): > 10 µM | TGI (SW-620 colon): > 10 µM | TGI (PC-3 prostate): > 10 µM | TGI (OVCAR-8 ovarian): > 10 µM | TGI (SF-295 CNS): > 10 µM | TGI (HL-60(TB) leukemia): > 10 µM | TGI (EKVX NSCLC): > 10 µM | TGI (SK-MEL-28 melanoma): > 10 µM | TGI (LOX IMVI melanoma): > 10 µM | TGI (RXF 393 renal): > 10 µM | TGI (MDA-MB-231 breast): > 10 µM | TGI (SN12C renal): > 10 µM | TGI (NCI-H23 lung): > 10 µM | TGI (HCC-2998 colon): > 10 µM | TGI (MCF7 breast): > 10 µM | TGI (K-562 leukemia): > 10 µM | TGI (SR leukemia): > 10 µM | TGI (A549 NSCLC): > 10 µM | TGI (HT29 colon): > 10 µM | TGI (SNB-75 CNS): > 10 µM | TGI (UACC-257 melanoma): > 10 µM

CN(C)CCOc1ccc2[nH]c(C(=O)N3CC(CCl)c4c3cc([N+](=O)[O-])c3ccccc43)cc2c1 (stereo not drawn)
TGI (MDA-N): 48.5 µM | TGI (SK-OV-3 ovarian): 85.5 µM | TGI (CCRF-CEM leukemia): > 100 µM | TGI (DU-145 prostate): 20.2 µM | TGI (UO-31 renal): > 100 µM | TGI (NCI-H226 lung): > 100 µM | TGI (A498 renal): 24.5 µM | TGI (KM12 colon): 3.2 µM | TGI (RPMI-8226 leukemia): > 100 µM | TGI (COLO 205 colon): > 100 µM | TGI (SW-620 colon): > 100 µM | TGI (PC-3 prostate): > 100 µM | TGI (HL-60(TB) leukemia): > 100 µM | TGI (LOX IMVI melanoma): > 100 µM | TGI (OVCAR-3 ovarian): 3.68 µM | TGI (NCI-H23 lung): > 100 µM | TGI (K-562 leukemia): > 100 µM | TGI (SNB-75 CNS): 3.77 µM

COC(C)(C)[C@@H]1CCCN1C1=C(C)C(=O)OC1
TGI (SK-MEL-5 melanoma): > 100 µM | TGI (MDA-N): > 100 µM | TGI (OVCAR-5 ovarian): > 100 µM | TGI (SK-OV-3 ovarian): > 100 µM | TGI (786-0 renal): > 100 µM | TGI (NCI-H460 lung): > 100 µM | TGI (CCRF-CEM leukemia): > 100 µM | TGI (DU-145 prostate): > 100 µM | TGI (HOP-62 NSCLC): > 100 µM | TGI (T-47D breast): > 100 µM | TGI (IGROV1 ovarian): > 100 µM | TGI (HCT-116 colon): > 100 µM | TGI (UO-31 renal): > 100 µM | TGI (HCT-15 colon): > 100 µM | TGI (MOLT-4 leukemia): > 100 µM | TGI (CAKI-1 renal): > 100 µM | TGI (UACC-62 melanoma): > 100 µM | TGI (RPMI-8226 leukemia): > 100 µM | TGI (COLO 205 colon): > 100 µM | TGI (MALME-3M melanoma): > 100 µM | TGI (SNB-19 CNS): > 100 µM | TGI (PC-3 prostate): > 100 µM | TGI (SF-539 CNS): > 100 µM | TGI (U251 CNS): > 100 µM | TGI (HS 578T breast): > 100 µM | TGI (SF-295 CNS): > 100 µM | TGI (HL-60(TB) leukemia): > 100 µM | TGI (LOX IMVI melanoma): > 100 µM | TGI (RXF 393 renal): > 100 µM | TGI (MDA-MB-231 breast): > 100 µM | TGI (SN12C renal): > 100 µM | TGI (NCI-H23 lung): > 100 µM | TGI (HCC-2998 colon): > 100 µM | TGI (ACHN renal): > 100 µM | TGI (MCF7 breast): > 100 µM | TGI (K-562 leukemia): > 100 µM | TGI (SR leukemia): > 100 µM | TGI (SF-268 CNS): > 100 µM | TGI (SK-MEL-2 melanoma): > 100 µM | TGI (NCI/ADR-RES ovarian): > 100 µM

O=c1c2ccccc2nc2n1CCc1c-2[nH]c2cc3c(cc12)OCO3
TGI (TK-10 renal): > 25 µM | TGI (SK-MEL-5 melanoma): > 25 µM | TGI (MDA-N): > 25 µM | TGI (OVCAR-5 ovarian): > 25 µM | TGI (SK-OV-3 ovarian): > 25 µM | GI50 (786-0 renal): 1.08 µM | TGI (786-0 renal): 7.69 µM | GI50 (NCI-H460 lung): 1.55 µM | TGI (NCI-H460 lung): > 25 µM | GI50 (CCRF-CEM leukemia): > 25 µM | TGI (CCRF-CEM leukemia): > 25 µM | TGI (HOP-62 NSCLC): > 25 µM | TGI (T-47D breast): > 25 µM | TGI (IGROV1 ovarian): > 25 µM | TGI (HCT-116 colon): > 25 µM | TGI (UO-31 renal): > 25 µM | TGI (HCT-15 colon): > 25 µM | TGI (MOLT-4 leukemia): > 25 µM | TGI (M14 melanoma): > 25 µM | TGI (KM12 colon): > 25 µM | TGI (RPMI-8226 leukemia): > 25 µM | TGI (COLO 205 colon): > 25 µM | TGI (SNB-19 CNS): 21.9 µM | TGI (SW-620 colon): > 25 µM | TGI (PC-3 prostate): > 25 µM | TGI (SF-539 CNS): > 25 µM | TGI (U251 CNS): > 25 µM | TGI (OVCAR-8 ovarian): > 25 µM | GI50 (HS 578T breast): 5.05 µM | TGI (HS 578T breast): 17.5 µM | TGI (MDA-MB-435): > 25 µM | TGI (SF-295 CNS): > 25 µM | TGI (HL-60(TB) leukemia): > 25 µM | TGI (EKVX NSCLC): > 25 µM | TGI (SK-MEL-28 melanoma): > 25 µM | TGI (MDA-MB-231 breast): > 25 µM | TGI (SN12C renal): > 25 µM | TGI (HCC-2998 colon): > 25 µM | TGI (ACHN renal): > 25 µM | TGI (MCF7 breast): > 25 µM | TGI (K-562 leukemia): > 25 µM | GI50 (OVCAR-4 ovarian): 1.5 µM | TGI (OVCAR-4 ovarian): 6.35 µM | TGI (SR leukemia): > 25 µM | TGI (SF-268 CNS): > 25 µM | GI50 (A549 NSCLC): > 25 µM | TGI (A549 NSCLC): > 25 µM | TGI (NCI/ADR-RES ovarian): > 25 µM | TGI (SNB-75 CNS): 22 µM | TGI (UACC-257 melanoma): > 25 µM | TGI (NCI-H522 lung): > 25 µM
